Test results reported in US20140194392A1 (priority 2013, published 2014).

Tests used:
A/WSN/33 (H1N1) = assay type: cell-based, influenza A/WSN/33 (H1N1)
A/Udorn/72 (H3N2) = experiment: microbe, parasite or virus in culture; assay type: cell-based, influenza A/Udorn/72 (H3N2); details: Influenza A virus, H3N2, MDCK, read-out: EC50 for viral plaque formation
Bac-NA^WT = Bac-NA^WT (Influenza A virus, UniProt Q6DPL2); assay type: biochemical
A/WSN/33 = assay type: cell-based, influenza A/WSN/33 (H1N1)
[1] = system: influenza A/WSN/33 (H1N1); experiment: microbe, parasite or virus in culture; assay type: cell-based; details: MDCK, read-out: EC50 for viral plaque formation
[2] = biological target: NA of influenza NIBRG14 (H5N1) (Influenza A virus, UniProt Q6DPL2); assay type: biochemical
Sequence of NA of influenza NIBRG14 (H5N1) (Q6DPL2 whole entry, looked up): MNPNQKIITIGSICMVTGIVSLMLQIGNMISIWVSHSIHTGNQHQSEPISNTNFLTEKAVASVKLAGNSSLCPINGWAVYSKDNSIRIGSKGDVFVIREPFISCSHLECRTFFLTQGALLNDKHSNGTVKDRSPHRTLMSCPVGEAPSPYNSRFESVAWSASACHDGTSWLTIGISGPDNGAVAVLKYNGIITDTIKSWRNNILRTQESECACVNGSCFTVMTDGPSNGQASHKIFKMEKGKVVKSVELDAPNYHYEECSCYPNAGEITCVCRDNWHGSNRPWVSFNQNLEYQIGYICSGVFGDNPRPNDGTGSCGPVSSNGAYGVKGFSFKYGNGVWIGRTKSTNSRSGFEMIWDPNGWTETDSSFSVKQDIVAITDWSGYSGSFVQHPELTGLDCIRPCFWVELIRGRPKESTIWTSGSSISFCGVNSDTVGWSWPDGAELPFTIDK

Sequence of Bac-NA^WT (Q6DPL2 63-449 limits assumed): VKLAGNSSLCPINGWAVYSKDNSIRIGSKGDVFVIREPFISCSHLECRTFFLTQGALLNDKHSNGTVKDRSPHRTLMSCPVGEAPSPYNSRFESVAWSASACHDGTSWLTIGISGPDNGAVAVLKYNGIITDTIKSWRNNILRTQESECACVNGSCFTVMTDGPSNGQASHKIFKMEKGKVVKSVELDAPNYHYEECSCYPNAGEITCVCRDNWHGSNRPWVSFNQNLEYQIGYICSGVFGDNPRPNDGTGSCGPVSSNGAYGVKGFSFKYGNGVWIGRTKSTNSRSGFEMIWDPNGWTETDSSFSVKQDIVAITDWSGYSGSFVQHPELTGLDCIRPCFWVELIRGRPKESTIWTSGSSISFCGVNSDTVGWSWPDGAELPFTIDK

In the case of `Nc1c(S(=O)(=O)O)cc(Nc2cccc(S(=O)(=O)CCOS(=O)(=O)O)c2)c2c1C(=O)c1ccccc1C2=O` [RB19, remazol brilliant blue R], the “virus yields (fluorogenic signal of NA activity)” value (A/WSN/33 (H1N1)) is reported as “dramatically reduced virus yields”, the EC50 (A/Udorn/72 (H3N2)) is reported as 2.8 µM and the IC50 (Bac-NA^WT) is reported as 3.4 µM. The influenza-induced cytopathic effect (A/WSN/33) was “inhibited the influenza-induced cytopathic effect”, the EC50 [1] was 2.7 µM and the IC50 [2] was 5.7 µM.
